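48-hour exposure; five concentrations; linearly interpolated endpoints. GI50 marks 50% less growth. At the TGI there is no net growth.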
Experiments:
Experiment in all cases: inhibition of tumour cell growth, NCI panel, 48 h; in the data active = GI50 below about 0.43 µM; inactive = the rest
786-0 renal = tested on: 786-0 renal
A498 renal = tested on: A498 renal
A549 NSCLC = tested on: A549 NSCLC
ACHN renal = tested on: ACHN renal
BT-549 breast = tested on: BT-549 breast
CAKI-1 renal = tested on: CAKI-1 renal
CCRF-CEM leukemia = tested on: CCRF-CEM leukemia
COLO 205 colon = tested on: COLO 205 colon
DU-145 prostate = tested on: DU-145 prostate
EKVX NSCLC = tested on: EKVX NSCLC
HCC-2998 colon = tested on: HCC-2998 colon
HCT-116 colon = tested on: HCT-116 colon
HCT-15 colon = tested on: HCT-15 colon
HL-60(TB) leukemia = tested on: HL-60(TB) leukemia
HOP-62 NSCLC = tested on: HOP-62 NSCLC
HOP-92 NSCLC = tested on: HOP-92 NSCLC
HS 578T breast = tested on: HS 578T breast
HT29 colon = tested on: HT29 colon
IGROV1 ovarian = tested on: IGROV1 ovarian
K-562 leukemia = tested on: K-562 leukemia
KM12 colon = tested on: KM12 colon
LOX IMVI melanoma = tested on: LOX IMVI melanoma
M14 melanoma = tested on: M14 melanoma
MALME-3M melanoma = tested on: MALME-3M melanoma
MCF7 breast = tested on: MCF7 breast
MDA-MB-231 breast = tested on: MDA-MB-231 breast
MDA-MB-435 = tested on: MDA-MB-435
MDA-MB-468 breast = tested on: MDA-MB-468 breast
MOLT-4 leukemia = tested on: MOLT-4 leukemia
NCI-H226 lung = tested on: NCI-H226 lung
NCI-H23 lung = tested on: NCI-H23 lung
NCI-H460 lung = tested on: NCI-H460 lung
NCI-H522 lung = tested on: NCI-H522 lung
NCI/ADR-RES ovarian = tested on: NCI/ADR-RES ovarian
OVCAR-3 ovarian = tested on: OVCAR-3 ovarian
OVCAR-4 ovarian = tested on: OVCAR-4 ovarian
OVCAR-5 ovarian = tested on: OVCAR-5 ovarian
OVCAR-8 ovarian = tested on: OVCAR-8 ovarian
PC-3 prostate = tested on: PC-3 prostate
RPMI-8226 leukemia = tested on: RPMI-8226 leukemia
SF-268 CNS = tested on: SF-268 CNS
SF-295 CNS = tested on: SF-295 CNS
SF-539 CNS = tested on: SF-539 CNS
SK-MEL-2 melanoma = tested on: SK-MEL-2 melanoma
SK-MEL-28 melanoma = tested on: SK-MEL-28 melanoma
SK-MEL-5 melanoma = tested on: SK-MEL-5 melanoma
SK-OV-3 ovarian = tested on: SK-OV-3 ovarian
SN12C renal = tested on: SN12C renal
SNB-19 CNS = tested on: SNB-19 CNS
SNB-75 CNS = tested on: SNB-75 CNS
SR leukemia = tested on: SR leukemia
SW-620 colon = tested on: SW-620 colon
T-47D breast = tested on: T-47D breast
TK-10 renal = tested on: TK-10 renal
U251 CNS = tested on: U251 CNS
UACC-257 melanoma = tested on: UACC-257 melanoma
UACC-62 melanoma = tested on: UACC-62 melanoma
UO-31 renal = tested on: UO-31 renal

COc1ccc(C(=O)/C=C/c2ccc(OCc3ccc(F)cc3)c(OC)c2)cc1OC
47.6 µM: TGI (SK-MEL-2 melanoma)
16.7 µM: TGI (SF-539 CNS)
> 100 µM: TGI (786-0 renal) | TGI (A498 renal) | TGI (A549 NSCLC) | TGI (ACHN renal) | TGI (CAKI-1 renal) | TGI (CCRF-CEM leukemia) | TGI (COLO 205 colon) | TGI (DU-145 prostate) | TGI (EKVX NSCLC) | TGI (HCT-116 colon) | TGI (HCT-15 colon) | TGI (HL-60(TB) leukemia) | TGI (HOP-62 NSCLC) | TGI (HOP-92 NSCLC) | TGI (HS 578T breast) | TGI (HT29 colon) | TGI (IGROV1 ovarian) | TGI (K-562 leukemia) | TGI (KM12 colon) | TGI (LOX IMVI melanoma) | TGI (M14 melanoma) | TGI (MALME-3M melanoma) | TGI (MCF7 breast) | TGI (MDA-MB-231 breast) | TGI (MDA-MB-468 breast) | TGI (MOLT-4 leukemia) | TGI (NCI-H226 lung) | TGI (NCI-H460 lung) | TGI (OVCAR-3 ovarian) | TGI (OVCAR-4 ovarian) | TGI (OVCAR-5 ovarian) | TGI (OVCAR-8 ovarian) | TGI (PC-3 prostate) | TGI (RPMI-8226 leukemia) | TGI (SF-268 CNS) | TGI (SF-295 CNS) | TGI (SK-MEL-28 melanoma) | TGI (SK-OV-3 ovarian) | TGI (SN12C renal) | TGI (SNB-19 CNS) | TGI (SR leukemia) | TGI (SW-620 colon) | TGI (T-47D breast) | TGI (TK-10 renal) | TGI (U251 CNS) | TGI (UACC-257 melanoma) | TGI (UACC-62 melanoma) | TGI (UO-31 renal)
16.4 µM: TGI (HCC-2998 colon)
29 µM: TGI (SK-MEL-5 melanoma)
99.2 µM: TGI (SNB-75 CNS)
60 µM: TGI (BT-549 breast)
inactive: GI50 (786-0 renal) 30 µM | GI50 (A498 renal) 26.1 µM | GI50 (A549 NSCLC) 4.81 µM | GI50 (ACHN renal) 6.46 µM | GI50 (BT-549 breast) 3.62 µM | GI50 (CAKI-1 renal) 6.01 µM | GI50 (CCRF-CEM leukemia) 3.49 µM | GI50 (COLO 205 colon) 7.93 µM | GI50 (DU-145 prostate) 5.64 µM | GI50 (EKVX NSCLC) 5.19 µM | GI50 (HCC-2998 colon) 3 µM | GI50 (HCT-116 colon) 3.57 µM | GI50 (HCT-15 colon) 3.09 µM | GI50 (HL-60(TB) leukemia) 10.4 µM | GI50 (HOP-62 NSCLC) 3.55 µM | GI50 (HOP-92 NSCLC) 7.53 µM | GI50 (HS 578T breast) 23 µM | GI50 (HT29 colon) 3.02 µM | GI50 (IGROV1 ovarian) 3.88 µM | GI50 (K-562 leukemia) 3.72 µM | GI50 (KM12 colon) 4.31 µM | GI50 (LOX IMVI melanoma) 3.06 µM | GI50 (M14 melanoma) 22.6 µM | GI50 (MALME-3M melanoma) 27.5 µM | GI50 (MCF7 breast) 3.04 µM | GI50 (MDA-MB-231 breast) 3.95 µM | GI50 (MDA-MB-435) 5.06 µM | GI50 (MDA-MB-468 breast) 2.74 µM | GI50 (MOLT-4 leukemia) 4.07 µM | GI50 (NCI-H226 lung) 4.7 µM | GI50 (NCI-H23 lung) 4.44 µM | GI50 (NCI-H460 lung) 5.88 µM | GI50 (NCI-H522 lung) 3.39 µM | GI50 (NCI/ADR-RES ovarian) 2.86 µM | GI50 (OVCAR-3 ovarian) 4.64 µM | GI50 (OVCAR-4 ovarian) 3.94 µM | GI50 (OVCAR-5 ovarian) 3.32 µM | GI50 (OVCAR-8 ovarian) 3.46 µM | GI50 (PC-3 prostate) 6.1 µM | GI50 (RPMI-8226 leukemia) 2.7 µM | GI50 (SF-268 CNS) 12 µM | GI50 (SF-295 CNS) 3.99 µM | GI50 (SF-539 CNS) 3.36 µM | GI50 (SK-MEL-2 melanoma) 13.4 µM | GI50 (SK-MEL-28 melanoma) 29.3 µM | GI50 (SK-MEL-5 melanoma) 10.4 µM | GI50 (SK-OV-3 ovarian) 34.8 µM | GI50 (SN12C renal) 2.95 µM | GI50 (SNB-19 CNS) 4.11 µM | GI50 (SNB-75 CNS) 17.3 µM | GI50 (SR leukemia) 3.18 µM | GI50 (SW-620 colon) 3.8 µM | GI50 (T-47D breast) 5.34 µM | GI50 (TK-10 renal) 14.3 µM | GI50 (U251 CNS) 3.79 µM | GI50 (UACC-257 melanoma) 23.2 µM | GI50 (UACC-62 melanoma) 4.41 µM | GI50 (UO-31 renal) 3.7 µM
79.3 µM: TGI (NCI-H23 lung)
16.2 µM: TGI (NCI/ADR-RES ovarian)
60.9 µM: TGI (MDA-MB-435)
71.6 µM: TGI (NCI-H522 lung)

— PubChem BioAssay (NCI)
